# In patent publication US20220081412A1, “QUINOLINYL-PYRAZINE-CARBOXAMIDE COMPOUNDS AND USES THEREOF” (The Regents of the University of Michigan, priority 2018, published 2022):
# Test system: MIA PaCa-2 cells
# Assay: Bru-seq analysis for nascent RNA synthesis (log2FC of genes, GSEA gene sets)
# Assay type: cell-based, human
# [1] = downregulated gene sets, TFBT, 4 h, MIA PaCa-2 cells
# [2] = gene set ADDYA_ERYTHROID_DIFFERENTIATION_BY_HEMIN, 4 h
# [3] = gene set AMIT_SERUM_RESPONSE_60_MCF10A, 4 h
# [4] = gene set BURTON_ADIPOGENESIS_10, 4 h
# [5] = gene set CHANG_CORE_SERUM_RESPONSE_DN, 4 h
# [6] = gene set CUI_GLUCOSE_DEPRIVATION, 4 h
# [7] = gene set DACOSTA_UV_RESPONSE_VIA_ERCC3_UP, 4 h
# [8] = gene set DAZARD_RESPONSE_TO_UV_NHEK_UP, 4 h
# [9] = gene set DIRMEIER_LMP1_RESPONSE_EARLY, 4 h
# [10] = gene set ENK_UV_RESPONSE_KERATINOCYTE_UP, 4 h
# [11] = gene set GEORGANTAS_HSC_MARKERS, 4 h
# [12] = gene set GO_ALCOHOL_BIOSYNTHETIC_PROCESS, 4 h
# [13] = gene set GO_ALCOHOL_METABOLIC_PROCESS, 4 h
# [14] = gene set GO_CELLULAR_LIPID_CATABOLIC_PROCESS, 4 h
# [15] = gene set GO_CELLULAR_RESPONSE_TO_TOPOLOGICALLY_INCORRECT_PROTEIN, 4 h
# [16] = gene set GO_CHROMATIN_ASSEMBLY_OR_DISASSEMBLY, 4 h
# [17] = gene set GO_DNA_PACKAGING_COMPLEX, 4 h
# [18] = gene set GO_ER_NUCLEUS_SIGNALING_PATHWAY, 4 h
# [19] = gene set GO_FATTY_ACID_BIOSYNTHETIC_PROCESS, 4 h
# [20] = gene set GO_INTRINSIC_COMPONENT_OF_ENDOPLASMIC_RETICULUM_MEMBRANE, 4 h
# [21] = gene set GO_IRE1_MEDIATED_UNFOLDED_PROTEIN_RESPONSE, 4 h
# [22] = gene set GO_ISOPRENOID_BIOSYNTHETIC_PROCESS, 4 h
# [23] = gene set GO_LYSOSOMAL_LUMEN, 4 h
# [24] = gene set GO_NUCLEAR_NUCLEOSOME, 4 h
# [25] = gene set GO_ORGANIC_HYDROXY_COMPOUND_BIOSYNTHETIC_PROCESS, 4 h
# [26] = gene set GO_PROTEIN_DNA_COMPLEX, 4 h
# [27] = gene set GO_PROTEIN_DNA_COMPLEX_SUBUNIT_ORGANIZATION, 4 h
# [28] = gene set GO_REGULATION_OF_ENDOPLASMIC_RETICULUM_STRESS_INDUCED_INTRINSIC_APOPTOTIC_SIGNALING_PATHWAY, 4 h
# [29] = gene set GO_RESPONSE_TO_ENDOPLASMIC_RETICULUM_STRESS, 4 h
# [30] = gene set GO_RESPONSE_TO_TOPOLOGICALLY_INCORRECT_PROTEIN, 4 h
# [31] = gene set GO_SMALL_MOLECULE_BIOSYNTHETIC_PROCESS, 4 h
# [32] = gene set GO_STEROID_BIOSYNTHETIC_PROCESS, 4 h
# [33] = gene set GO_STEROID_METABOLIC_PROCESS, 4 h
# [34] = gene set GO_STEROL_BIOSYNTHETIC_PROCESS, 4 h
# [35] = gene set GO_STEROL_METABOLIC_PROCESS, 4 h
# [36] = gene set HALLMARK_ADIPOGENESIS, 4 h
# [37] = gene set HALLMARK_ANDROGEN_RESPONSE, 4 h
# [38] = gene set HALLMARK_APOPTOSIS, 4 h
# [39] = gene set HALLMARK_CHOLESTEROL_HOMEOSTASIS, 4 h
# [40] = gene set HALLMARK_COAGULATION, 4 h
# [41] = gene set HALLMARK_DNA_REPAIR, 4 h
# [42] = gene set HALLMARK_EPITHELIAL_MESENCHYMAL_TRANSITION, 4 h
# [43] = gene set HALLMARK_ESTROGEN_RESPONSE_EARLY, 4 h
# [44] = gene set HALLMARK_ESTROGEN_RESPONSE_LATE, 4 h
# [45] = gene set HALLMARK_FATTY_ACID_METABOLISM, 4 h
# [46] = gene set HALLMARK_GLYCOLYSIS, 4 h
# [47] = gene set HALLMARK_HEME_METABOLISM, 4 h
smiles,measurement,setting,value
"CCN(CC)CCCC(C)Nc1cnc(C(=O)Nc2cc(C)cc3cccnc23)cn1 (stereo not drawn) [J4, 5-((5-(diethylamino)pentan-2-yl)amino)-N-(6-methylquinolin-8-yl)pyrazine-2-carboxamide]",ES PBX1_02,[1],−0.282
same,ES PIT1_Q6,[1],−0.263
same,ES POU1F1_Q6,[1],−0.236
same,ES TAANNYSGCG_UNKNOWN,[1],−0.253
same,ES TAAWWATAG_RSRFC4_Q2,[1],−0.271
same,ES TAAYNRNNTCC_UNKNOWN,[1],−0.314
same,ES YKACATTT_UNKNOWN,[1],−0.221
same,NES BRN2_01,[1],−1.086
same,NES CDPCR1_01,[1],−1.030
same,NES CDP_01,[1],−1.041
same,NES EN1_01,[1],−1.062
same,NES FOXJ2_02,[1],−1.154
same,NES GGCKCATGS_UNKNOWN,[1],−1.621
same,NES HMEF2_Q6,[1],−1.037
same,NES HNF1_Q6,[1],−1.145
same,NES HOX13_01,[1],−1.144
same,NES IK1_01,[1],−1.074
same,NES IRF2_01,[1],−1.322
same,NES MEF2_02,[1],−0.965
same,NES MEF2_Q6_01,[1],−0.985
same,NES MEIS1BHOXA9_01,[1],−1.269
same,NES NKX3A_01,[1],−1.213
same,NES PAX8_01,[1],−1.304
same,NES PBX1_02,[1],−1.130
same,NES PIT1_Q6,[1],−1.156
same,NES POU1F1_Q6,[1],−1.032
same,NES TAANNYSGCG_UNKNOWN,[1],−1.012
same,NES TAAWWATAG_RSRFC4_Q2,[1],−1.112
same,NES TAAYNRNNTCC_UNKNOWN,[1],−1.303
same,NES YKACATTT_UNKNOWN,[1],−1.039
same,ES,[2],0.708
same,NES,[2],2.307
same,ES,[3],0.728
same,NES,[3],2.228
same,ES,[4],0.790
same,NES,[4],2.254
same,ES,[5],0.624
same,NES,[5],2.370
same,ES,[6],0.760
same,NES,[6],2.383
same,ES,[7],0.569
same,NES,[7],2.301
same,ES,[8],0.602
same,NES,[8],2.291
same,ES,[9],0.764
same,NES,[9],2.410
same,ES,[10],0.590
same,NES,[10],2.464
same,ES,[11],0.736
same,NES,[11],2.234
same,ES,[12],0.728
same,NES,[12],2.531
same,ES,[13],0.543
same,NES,[13],2.127
same,ES,[14],0.577
same,NES,[14],2.080
same,ES,[15],0.635
same,NES,[15],2.333
same,ES,[16],0.576
same,NES,[16],2.165
same,ES,"gene set GO_DNA_PACKAGING, 4 h",0.570
same,NES,"gene set GO_DNA_PACKAGING, 4 h",2.161
same,ES,[17],0.755
same,NES,[17],2.422
same,ES,[18],0.739
same,NES,[18],2.156
same,ES,[19],0.626
same,NES,[19],2.043
same,ES,[20],0.577
same,NES,[20],2.075
same,ES,[21],0.690
same,NES,[21],2.300
same,ES,[22],0.796
same,NES,[22],2.093
same,ES,[23],0.637
same,NES,[23],2.060
same,ES,[24],0.832
same,NES,[24],2.218
same,ES,[25],0.651
same,NES,[25],2.372
same,ES,[26],0.619
same,NES,[26],2.288
same,ES,[27],0.521
same,NES,[27],2.041
same,ES,[28],0.774
same,NES,[28],2.132
same,ES,[29],0.526
same,NES,[29],2.067
same,ES,[30],0.616
same,NES,[30],2.337
same,ES,[31],0.555
same,NES,[31],2.227
same,ES,[32],0.784
same,NES,[32],2.632
same,ES,[33],0.667
same,NES,[33],2.432
same,ES,[34],0.878
same,NES,[34],2.656
same,ES,[35],0.748
same,NES,[35],2.604
same,ES,[36],0.465
same,NES,[36],1.784
same,ES,[37],0.529
same,NES,[37],1.875
same,ES,[38],0.485
same,NES,[38],1.804
same,ES,[39],0.759
same,NES,[39],2.533
same,ES,[40],0.516
same,NES,[40],1.624
same,ES,[41],0.377
same,NES,[41],1.422
same,ES,[42],0.407
same,NES,[42],1.436
same,ES,[43],0.458
same,NES,[43],1.719
same,ES,[44],0.443
same,NES,[44],1.631
same,ES,[45],0.551
same,NES,[45],2.054
same,ES,[46],0.417
same,NES,[46],1.603
same,ES,[47],0.389
same,NES,[47],1.480
same,ES,"gene set HALLMARK_HYPOXIA, 4 h",0.591
same,NES,"gene set HALLMARK_HYPOXIA, 4 h",2.235
